From publication PMC10817097, “Caffeic Acid Phosphanium Derivatives: Potential Selective Antitumor, Antimicrobial and Antiprotozoal Agents” (International Journal of Molecular Sciences, 2024)
Where “and” joins values, the source holds several entries; their conditions need not be identical. Identical values can stand only once. Like-named read-outs stand apart in the source and are kept apart here.

How the values were obtained:
[1] = tested on: the other tested bacteria and the strain of Candida albicans; test: MIC/MBC, other tested bacteria and Candida albicans; format: cell-based; conditions: listed as caffeic acid
Description: The antimicrobial activity of caffeic acid and its semi-synthetic derivates was tested against Gram-positive (Staphylococcus aureus CCM 4750, methicillin-resistant; Staphylococcus aureus CCM 4223, methicillin-susceptible; Enterococcus faecalis CCM 4224) and Gram-negative bacteria (Pseudomonas aeruginosa CCM 3955; Escherichia coli CCM 3954; Klebsiella pneumoniae CCM 4415; Proteus mirabilis CCM 7188), and one strain of a yeast Candida albicans (CCM 8267). Microbial strains were purchased from the Czech Collection of Microorganisms, Brno, Czech Republic, and preserved in aliquots in cryoprotective media at −20 °C until the testing. Revival of cryoprotected bacteria took place by overnight cultivation on blood agar and an additional passage on blood agar. Minimal inhibitory concentrations (MIC) against bacteria were detected by broth microdilution test in sterile 96-well U-shaped microtiter plates (Roll s.a.s., Piove di Sacco, Italy) according to the EUCAST recommendations. The test was performed in 100 μL volumes in microtiter plate wells with a final bacterial concentration of 5 × 10^5 CFU·mL^−1. […] The minimal bactericidal/fungicidal concentrations (MBC/MFC) were detected by point-inoculation of 5 μL aliquots from test wells without visible growth on solid agar media free of antimicrobials. […]

[2] = tested on: non-pathogenic Neff's strain of Acanthamoeba castellanii; parameters: method as in Sifaoui et al. (2017) 44; conditions: A. castellanii Neff, 96 h of incubation, ref Sifaoui et al. (2017) 44; cited from earlier work
[3] = parameters: method as in PMID 11743793; conditions: cited from earlier work

Q: Which results are given for `O=C(O)C=Cc1ccc(O)c(O)c1` [CA, 3-(3,4-dihydroxyphenyl)-2-propenoic acid, reference compound]?
A: MIC/MBC [1]: exceeded 6900 μM and > 1200 μg/mL; IC50 (50% growth inhibition) [2]: > 100 µg/mL; plasma levels of caffeic acid ([3]; 1 h after consumption of 300 mL red wine (about 2.8 mg caffeic acid)): 4.9 ± 0.3 ng/mL; plasma levels of caffeic acid ([3]; 1 h after consumption of 300 mL red wine, approx. conversion): approx. 27.2 nM
